For one data set, the system named is Mus musculus. The data set is described as follows: Antiinflammatory activity against TPA-induced mouse ear edema model assessed as reduction in ear edema at 40 mg/kg, po administered for 7 consecutive days. The data set is classed as functional. Also on record: scale not given: the % may be the effect or the level left. The settings on record: time 7 day.
Data set [1] deals with RAW264.7. The data set is described as follows: Anti-inflammatory activity against LPS-induced mouse RAW264.7 cells assessed as inhibition of NO production at 10 uM preincubated for 2 hrs followed by LPS addition and measured after 24 hrs by Griess reagent-based microplate reader analysis relative to control. It counts as functional. Set-up: scale not given: the % may be the effect or the level left. As to conditions: time 26 hrs.

In data set [2] the test system is RAW264.7. The data set is described as follows: Anti-inflammatory activity against LPS-induced mouse RAW264.7 cells assessed as inhibition of NO production at 20 uM preincubated for 2 hrs followed by LPS addition and measured after 24 hrs by Griess reagent-based microplate reader analysis relative to control. The data set is classed as functional. The settings on record: time 26 hrs. Also on record: scale not given: the % may be the effect or the level left. On the technique in general: Nitrite, measured by Griess reagent, commonly stands in for NO production.

The nature of data set [3]: Cytotoxicity against mouse RAW264.7 cells assessed as cell viability at 40 uM incubated for 24 hrs by MTT assay relative to control. As to conditions: read-out: Activity. It counts as toxicity, cell-based.

In the case of `CC1(C)C(=O)/C(=C\c2cnccn2)C[C@]2(C)[C@H]3CC=C4[C@@H]5C[C@@](C)(C(=O)O)CC[C@]5(C)CC[C@@]4(C)[C@]3(C)CC[C@@H]12`, the Activity in the data set with Mus musculus came out at 59.69%.

Regarding `CC1(C)CC[C@]2(C(=O)OCc3ccccc3)CC[C@]3(C)C(=CC[C@@H]4[C@@]5(C)CCC(=O)[C@@](C)(COC(=O)CCc6c[nH]c7ccccc67)[C@@H]5CC[C@]43C)[C@@H]2C1`, the Activity is on record as 0.17% in the data set on RAW264.7 [1] and 0.43% in the data set with RAW264.7 [2]. Moreover, the viability at 24 h, 40 µM in data set [3] worked out at 107%.

Values taken from ChEMBL document CHEMBL5537127, “Design and synthesis of novel hederagonic acid analogs as potent anti-inflammatory compounds capable of protecting against LPS-induced acute lung injury” (Eur J Med Chem, 2024).
